The subject of one series is cGMP-PDE. Put plainly: cGMP-PDE inhibition assay, enzyme purified from HT-29 tumor cells. Type of series: biochemical, human. To be noted: for % Inhibition at 100 μM (cGMP PDE): test compounds.
In another series the test system is COX. As to the kind of experiment: COX inhibition. Type of series: biochemical. To be noted: 100 μM.
The test system of series [1] is PDE peak B (novel cGMP-specific PDE). As to the kind of experiment: cGMP hydrolysis by PDE peak B isolated from SW-480 cells. In kind it is biochemical, human.
The target of a further series is T1, PDE peak A (PDE5) (Homo sapiens, UniProt O76074).
T1 construct: SW-480 cells are collected and homogenized; endogenous in cells; host or cells: SW-480 human colon adenocarcinoma cells; supernatant of homogenate fractionated on DEAE-Trisacryl M
As to the kind of experiment: cGMP hydrolysis by PDE peak A isolated from SW-480 cells. In kind it is biochemical.

A further series has as its system HT-29 cells. As to the kind of experiment: Apoptosis and necrosis by morphology (acridine orange/ethidium bromide) in HT-29 cells. The settings on record: for apoptotic and necrotic cell death, in words: HT-29 cells treated for six days. In kind it is cell-based, human. Here is the method:
Treatment of cells with test compounds involves either pre- or post-confluent cultures and treatment for two to seven days at various concentrations of the compound in question. Apoptotic cells are measured by combining both the attached and “floating” compartments of the cultures. The protocol for treating tumor cell cultures with sulindac and related compounds to obtain a significant amount of apoptosis has been described in the literature. (See, Piazza, G. A., et al., Cancer Research, 55:3110-16, 1995, which is incorporated herein by reference). The novel features include collecting both floating and attached cells, identification of the optimal treatment times and dose range for observing apoptosis, and identification of optimal cell culture conditions.
Following treatment with a test compound, cultures can be assayed for apoptosis and necrosis by fluorescent microscopy following labeling with acridine orange and ethidium bromide. The method for measuring apoptotic cell number has previously been described by Duke & Cohen, “Morphological And Biochemical Assays Of Apoptosis,” Current Protocols In Immunology, Coligan et al., eds., 3.17.1-3.17.16 (1992, which is incorporated herein by reference).
For example, floating and attached cells can be collected, and aliquots of cells can be centrifuged. The cell pellet can then be resuspended in media and a dye mixture containing acridine orange and ethidium bromide. The mixture can then be examined microscopically for morphological features of apoptosis.
Reference compounds and test compounds were analyzed for their cGMP-specific PDE inhibitory activity in accordance with the protocols for the assay, supra. […] Apoptotic and necrotic cell death was determined as previously described (Duke and Cohen, In: Current Protocols in Immunology, 3.17.1-3.17.16, New York, John Wiley and Sons, 1992). […]
The apoptosis inducing activity for a series of phosphodiesterase inhibitors was determined. […] Apoptosis and necrosis were determined morphologically after acridine orange and ethidium bromide labeling in accordance with the assay described, supra.

In series [2] the test system is premalignant lesions in mouse mammary gland organ culture. As to the kind of experiment: Mammary gland organ culture model. In kind it is cell-based. How it is done: For example, female BALB/c mice can be treated with a combination of estradiol and progesterone daily, in order to prime the glands to be responsive to hormones in vitro. The animals are sacrificed and thoracic mammary glands are excised aseptically and incubated for ten days in growth media supplemented with insulin, prolactin, hydrocortisone, and aldosterone. DMBA (7,12-dimethylbenz(a)anthracene) is added to medium to induce the formation of premalignant lesions. Fully developed glands are then deprived of prolactin, hydrocortisone, and aldosterone, resulting in the regression of the glands but not the premalignant lesions.
The test compound is dissolved in DMSO and added to the culture media for the duration of the culture period. At the end of the culture period, the glands are fixed in 10% formalin, stained with alum carmine, and mounted on glass slides. The extent of the area occupied by the mammary lesions can be quantitated by projecting an image of the gland onto a digitation pad. The area covered by the gland is traced on the pad and considered as 100% of the area. The space covered by each of the unregressed structures is also outlined on the digitization pad and quantitated by the computer.
The incidence of forming mammary lesions is the ratio of the glands with mammary lesions to […]. The incidence of mammary lesions in test compound treated glands is compared with that of the untreated glands.
Mammary gland organ culture experiments were performed as previously described (Mehta and Moon, Cancer Research, 46: 5832-5835, 1986). […] The data support the hypothesis that cyclooxygenase inhibition is not necessary for the anti-neoplastic properties of desired compounds.

The nature of series [3]: Side effects of exisulind on administration. Type of series: in vivo. To be noted: reversible. An excerpt:
This effect is reversible, and liver enzymes return to normal levels when the administered dose of exisulind returns to the traditionally recommended level or when treatment is discontinued. The most serious side effects of GnRH analogs, on the other hand, are related to decreases serum levels of estrogen and testosterone.

Series [4] deals with cAMP levels in HT-29 cells. As to the kind of experiment: cAMP levels in HT-29 cells by radioimmunoassay. In kind it is cell-based, human. To be noted: HT-29 cells treated 30 minutes. An excerpt: It has been observed that a compound which is useful in the practice of this invention (i.e., one that selectively induces apoptosis in neoplastic cells, but not substantially in normal cells) follows a time course consistent with cGMP-specific PDE inhibition. […] The intracellular targets of these drug actions are being studied further, but current data support the concept that the initial rise in cGMP content and the subsequent fall in cAMP content precede apoptosis in neoplastic cells exposed to test compounds useful in this invention. To determine the cyclic AMP content in cell extracts, radioimmunoassay techniques similar to those described above for cGMP are used.

Series [5] has as its system cGMP levels in HT-29 cells. As to the kind of experiment: cGMP levels in HT-29 cells by radioimmunoassay. In kind it is cell-based, human. To be noted: HT-29 cells treated 30 minutes.
The subject of series [6] is HT-29 human colon carcinoma cell line. As to the kind of experiment: Growth inhibition of HT-29 cells (SRB assay; trypan blue count). In kind it is cell-based. (The SRB assay estimates cell density from bound dye.)

The structures appear in SMILES notation.

Broadly, the % Inhibition is how much of the control response was suppressed. With `COc1cc(C=C2C(C)=C(CC(=O)O)c3cc(F)ccc32)cc(OC)c1OC` [Compound B, (Z)-5-Fluoro-2-methyl-1-(3,4,5-trimethoxybenzylidene)-3-acetic acid], in the series with cGMP-PDE, the “% Inhibition at 100 μM (cGMP PDE)” value was less than 25%. Further, the “COX inhibition, in words” value with COX is reported as “did not inhibit COX”.
On to `CC1(C)C(=O)Nc2ccc(C3=NNC(=O)CC3)cc21` [Indolidan], for which the “inhibition / sensitivity of the new cGMP-PDE (peak B), in words” value (from here on “inhibition / sensitivity”) in [1] is listed as “relatively insensitive”.
As for `COc1cc(/C=C2/C(C)=C(CC(=O)NCc3ccccc3)c3cc(F)ccc32)cc(OC)c1OC` [Compound E, (Z)-5-Fluoro-2-methyl-1-(3,4,5-trimethoxybenzylidene)-3-indenylacetamide, N-benzyl], the “inhibition of peak A (PDE5), in words” value on PDE peak A (PDE5) is “competitively inhibit”. Moreover, in series [1], the “inhibition / sensitivity” value was “competitively inhibit”. In the series with cGMP-PDE, the “% Inhibition at 100 μM (cGMP PDE)” value came to 75%. Further, in the series with COX, the “COX inhibition, in words” value was “did not inhibit COX”.
Regarding `CC1=C(CC(=O)O)c2cc(F)ccc2/C1=C\c1ccc(S(C)(=O)=O)cc1` [Exisulind, (Z)-5-fluoro-2-methyl-1-[[4-(methylsulfonyl)phenyl]methylene]indene-3-yl acetic acid], on PDE peak A (PDE5), the “inhibition of peak A (PDE5), in words” value is “inhibits both PDE5 and the new cGMP-PDE”. In addition, in series [1], the “inhibition / sensitivity” value is “inhibits both PDE5 and the new cGMP-PDE”. Also, the “% Inhibition at 10 μM (cGMP PDE)” value in the series with cGMP-PDE is given as 39%. Moreover, the “apoptotic and necrotic cell death, in words” value in the series with HT-29 cells is “capable of causing apoptotic cell death without inducing necrosis”. Further, the “inhibition of premalignant lesions in mammary gland organ culture, in words” value (shortened to “inhibition of premalignant lesions”) in series [2] is listed as “effectively inhibit the formation of premalignant lesions”. The “effect at doses higher than the recommended therapeutic levels” value in series [3] is on record as “elevated levels of liver enzymes”.
As to `COc1ccc(C2CNC(=O)C2)cc1OC1CCCC1` (stereo not drawn) [Rolipram], the “inhibition / sensitivity” value in series [1] is “relatively insensitive”. In addition, in [4], the “effect on levels of cAMP, in words” value is “increased cAMP levels”.
As to `CCOC(=O)C1=C[C@]2(CC)CCCN3CCc4c(n1c1ccccc41)[C@@H]32` [Vinpocetine], in series [1], the “inhibition / sensitivity” value is recorded as “relatively insensitive”.
Take `CCCc1nn(C)c2c(=O)[nH]c(-c3cc(S(=O)(=O)N4CCN(C)CC4)ccc3OCC)nc12` [Sildenafil]: on PDE peak A (PDE5), the “inhibition of peak A (PDE5), in words” value is recorded as “inhibited activity of peak A”. Also, in series [1], the “inhibition / sensitivity” value was “relatively insensitive”.
With `CSc1ccc(/C=C2/C(C)=C(CC(=O)O)c3cc(F)ccc32)cc1` [Sulindac sulfide], the “inhibition of peak A (PDE5), in words” value against PDE peak A (PDE5) is on record as “competitively inhibit”. Further, the “inhibition / sensitivity” value in series [1] is “competitively inhibit”. Moreover, the “% Inhibition at 10 μM (cGMP PDE)” value with cGMP-PDE turned out to be 97%. Besides, in [5], the “increase of the levels of cGMP” value is given as “greater than 50%”. Further, the “effect on levels of cAMP, in words” value in series [4] is given as “unaffected”. Further, the “growth inhibition by counting viable cells after trypan blue staining, in words” value in [6] (120 μM, time course) is reported as “capable of inhibiting tumor cell growth”. Also, the “apoptosis by morphological determination, in words” value in the series with HT-29 cells (120 μM, time course) is reported as “increase in apoptosis”. The “apoptotic and necrotic cell death, in words” value with HT-29 cells is “capable of causing apoptotic cell death without inducing necrosis”. In addition, the “inhibition of premalignant lesions” value in [2] was “inactive”.
For the molecule `CC1=C(CC(=O)O)c2cc(F)ccc2/C1=C/c1ccc([S+](C)[O-])cc1` (stereo not drawn) [sulindac sulfoxide], in series [2], the “inhibition of premalignant lesions” value is “effectively inhibit the formation of premalignant lesions”.
For the molecule `CC1=C(CC(=O)O)c2cc(F)ccc2/C1=C\c1ccc(Cl)cc1` [C, (Z)-5-Fluoro-2-methyl-1-(p-chlorobenzylidene)-3-acetic acid], the “% Inhibition at 100 μM (cGMP PDE)” value in the series with cGMP-PDE is given as less than 25%.
Regarding `O=C([O-])C1CCN(c2nc(NCc3ccc4c(c3)OCO4)c3cc(Cl)ccc3n2)CC1.[Na+]` [Compound E4021], the “inhibition / sensitivity” value in series [1] is recorded as “relatively insensitive”.
For `CCCOc1ccccc1-c1nc2nn[nH]c2c(=O)[nH]1` [Zaprinast], the “inhibition / sensitivity” value in series [1] is on record as “relatively insensitive”.
With `CCN(CC)CCSC12CC(=O)OC1(C)/C(=C/c1ccc(S(C)(=O)=O)cc1)c1ccc(F)cc12` (racemic) [A, rac-threo-(E)-1-(N,N′-diethylaminoethanethio)-1-(butan-1′,4′-olido)-[3′,4′:1,2]-6-fluoro-2-methyl-3-(p-methylsulfonylbenzylidene)-indan], the “% Inhibition at 100 μM (cGMP PDE)” value in the series with cGMP-PDE is less than 25%. Besides, the “Growth inhibitory activity, % Inhibition at 100 μM” value in series [6] (100 μM single dose) is reported as 68%.
